Test results as given in patent publication US20080039328A1, “Post Harvest Control of Genetically Modified Crop Growth Employing D-Amino Acid Compounds” (BASF PLANT SCIENCE GMBH, priority 2004, published 2008).
“Also recorded” adds a separate entry of the source.

What was measured:
[1] = system: wild-type Arabidopsis thaliana; test: Growth of wild-type A. thaliana plantlets on medium with D-amino acids; type: in vivo
Method: Wild type Arabidopsis thaliana plantlets were grown on half-concentrated Murashige-Skoog medium (0.5% (wt/vol) sucrose, 0.8% (wt/vol) agar) supplemented with the indicated D-amino acid at either 3 mM (Panel A) or 30 mM (Panel B).
(§1) FIG. 4 D-amino acid dose responses of dao1 transgenic and wild-type A. thaliana. (a-d) Growth of dao1 transgenic line 3:7 (white), 10:7 (light gray), 13:4 (gray) and wild-type (black) plants, in fresh weight per plant, on media containing various concentrations of D-serine, D-alanine, D-isoleucine and D-valine in half-strength MS with 0.5% (wt/vol) sucrose and 0.8% (wt/vol) agar. Different concentration ranges were used for different ID-amino acids. The plants were grown for 10 d after germination under 16 h photoperiods at 24° C.; n=10±s.e.m., except for plants grown on D-isoleucine, where smaller Petri dishes were used, (n=6±s.e.m.).
(§2) T1 seeds of transgenic Arabidopsis plants were surface-sterilized and sown in Petri plates that were sealed with gas-permeable tape. The growth medium was half strength MS19 with 0.5% (wt/vol) sucrose and 0.8% (wt/vol) agar, plus 3 mM D-alanine, 3 mM D-serine or 50 μg/ml kanamycin as the selective agent. Plants were grown for 5 d after germination with a 16 h photoperiod at 24° C. To evaluate the selection efficiency on different substrates, 2,074, 1,914 and 1,810 T1 seeds were sown on D-alanine-, D-serine- and kanamycin-selective plates, respectively, and the number of surviving seedlings was counted (44, 32 and 43, respectively).

[2] = system: dao1 transgenic A. thaliana; test: Growth of dao1 (DAAO) transgenic A. thaliana on medium with D-amino acids; type: in vivo, Arabidopsis thaliana
Method: as §1, §2
The T-DNA contained both 35S:dao1 and pNos:nptII, allowing D-amino acid and kanamycin selection to be compared in the same lot of seeds.
Therefore, plants containing the construct were tested as described above on two sets of media, one containing D-isoleucine and the other containing D-valine at various concentrations, to assess whether DAAO could also be used as a counter-selection marker. Unambiguous counter-selection selection was achieved when seeds were sown on either D-isoleucine or D-valine at concentrations greater than 10 mM (FIG. 4 c,d).

[3] = target: T1, DAAO (Rhodotorula toruloides, UniProt P80324); test: DAAO incubation of cell-free plant extracts, keto acid production by HPLC; type: biochemical, Rhodotorula gracilis; details: cell-free extracts from dao1 transgenic line 10:7
T1 construct: expressed in transfected cells; host or cells: Arabidopsis thaliana (Col-0), dao1 transgenic line 10:7, transformed with pPCV702:dao1 (CaMV 35S); crude soluble protein extract
T1 sequence (P80324 25-368): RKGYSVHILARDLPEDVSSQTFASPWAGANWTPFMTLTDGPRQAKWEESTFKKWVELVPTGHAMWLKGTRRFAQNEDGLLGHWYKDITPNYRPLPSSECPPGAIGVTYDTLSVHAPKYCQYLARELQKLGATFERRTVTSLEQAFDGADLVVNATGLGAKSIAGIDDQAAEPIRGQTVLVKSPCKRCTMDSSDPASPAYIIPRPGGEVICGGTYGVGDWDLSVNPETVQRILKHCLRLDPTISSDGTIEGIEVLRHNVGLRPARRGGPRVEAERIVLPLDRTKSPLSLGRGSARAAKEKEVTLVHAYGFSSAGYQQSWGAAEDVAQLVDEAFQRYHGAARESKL
Method: Soluble proteins were extracted by shaking 0.1 g samples of plant material that had been finely pulverized in a 1.5 ml Eppendorf tube in 1 ml of 0.1 M potassium phosphate buffer, pH 8. DAAO activity was then assayed as follows. Reaction mixtures were prepared containing 2,120 μl of 0.1 M potassium phosphate buffer, pH 8, 80 μl of crude protein extract and 100 μl of 0.3 M D-alanine. The samples were incubated for 2 h at 30° C. The enzyme activity was then assessed, by measuring the increase in absorbance at 220 nm (E=1.090 M^−1 cm^−1) associated with the conversion of D-alanine to pyruvate, after transferring the test tubes to boiling water for […] to stop the reaction. In control reactions, D-alanine was added immediately before boiling. One unit of DAAO activity is defined as the turnover of one micromole of substrate per minute, and activity was expressed per gram plant biomass (fresh weight). The breakdown of D-isoleucine and D-valine in DAAO incubations, and the associated production of 3-methyl-2-oxopentanoate and 3-methyl-2-oxobutanoate, were analyzed by high-performance liquid chromatography. In other respects the reactions were carried out as described above.
Presumably endogenous transaminase may be specific for the L-enantiomer, so the corresponding D-enantiomer is not metabolized in wildtype plants, but only in plants expressing DAAO. […]

[4] = system: Transgenic Arabidopsis plants (DAAO from Rhodotorula gracilis); test: Greenhouse spraying of mixed plantlets on soil with D-isoleucine; type: in vivo; details: sprayed, 10 mM, 20 mM, 30 mM in isotonic salt solution, pH 7.0, soil, green-house
Method: (§3) Transgenic Arabidopsis, Brassica napus, and Zea mays plants are generated as described above using either construct I (SEQ ID NO: 15) or construct II (SEQ ID NO: 16) for Agrobacterium mediated transformation. Transgenic plants are selected using the negative selection marker property of the D-amino acid oxidase on medium comprising 0.3, 3 or 30 mM D-alanine (or D-serine). Resulting transgenic plants are selfed to obtain homozygous plants. Homozygous plants are propagated over 2 to 3 generations to ensure stability of the transgenic insertion.
(§4) Seeds of transgenic plants are mixed with seeds of the corresponding non-transgenic line (used for transformation). Various proportions of transgenic versus non-transgenic seeds are used (1:1, 1:10, 1:100).
(§5) Seeds are sown on standard soil under green-house conditions. After germination, developing plantlets were sprayed at various developmental steps with preparations of D-isoleucine (final concentration of 10 mM, 20 mM, 30 mM, respectively in isotonic salt solution, pH 7.0).

[5] = system: Transgenic Brassica napus plants (DAAO from Rhodotorula gracilis); test: as above; type: in vivo; details: sprayed, 10 mM, 20 mM, 30 mM in isotonic salt solution, pH 7.0, soil, green-house
Method: as §3, §4, §5

[6] = system: Transgenic Zea mays plants (DAAO from Rhodotorula gracilis); test: as above; type: in vivo; details: sprayed, 10 mM, 20 mM, 30 mM in isotonic salt solution, pH 7.0, soil, green-house
Method: as §3, §4, §5

[7] = system: non-transgenic Arabidopsis plants; test: as above; type: in vivo; details: sprayed, 10 mM, 20 mM, 30 mM in isotonic salt solution, pH 7.0, soil, green-house
Method: as §3, §4, §5

[8] = system: non-transgenic Brassica napus plants; test: as above; type: in vivo; details: sprayed, 10 mM, 20 mM, 30 mM in isotonic salt solution, pH 7.0, soil, green-house
Method: as §3, §4, §5

[9] = system: non-transgenic Zea mays plants; test: as above; type: in vivo; details: sprayed, 10 mM, 20 mM, 30 mM in isotonic salt solution, pH 7.0, soil, green-house
Method: as §3, §4, §5

[10] = various concentrations in half-strength MS, 10 d after germination

CC[C@@H](C)[C@@H](N)C(=O)O [D-isoleucine]
Effect on plant growth (FIG. 3) ([1]; 3 mM or 30 mM in half-concentrated Murashige-Skoog medium, wild type plantlets): no significant effects
Response of wild-type plants (compared with DAAO lines) ([1]; in vivo): grew well, with no sign of toxicity
Effect on wild-type plantlets (FIG. 2) ([1]; treated with 30 mM): no severe damage
Growth of wild-type plants (FIG. 4) [1, 10]: not toxic; also recorded: minor effects; also recorded: not the wild-type plants
Response of thirteen individual lines expressing DAAO ([2]; in vivo): effectively killed
Effect on transgenic plantlets comprising DAAO gene (FIG. 2) ([2]; treated with 30 mM): toxic effect
Growth of plants expressing DAAO (FIG. 4) [2, 10]: strong negative influence on the growth; also recorded: inhibit growth
Increase in production of 3-methyl-2-oxopentanoate compared to extracts of wild-type plants [3]: 15 fold
Transgenic plants able to reach maturity [4]: None
Transgenic plants able to reach maturity [5]: None
Transgenic plants able to reach maturity [6]: None
Effect of the treatment on non-transgenic plants [7]: unaffected
Effect of the treatment on non-transgenic plants [8]: unaffected
Effect of the treatment on non-transgenic plants [9]: unaffected
